# Measurements reported in patent US20240219373A1, “METHOD FOR EVALUATING EFFICACY OF ANTICANCER DRUG OR SCREENING ANTICANCER DRUG” (ORGANOIDSCIENCES LTD., priority 2021, published 2024).
# Key:
# Assay type in all cases: cell-based, human
# lung cancer organoids [1] = experiment: Growth and death rate of lung cancer organoids co-cultured with CD8+ T cells and DCs
# Protocol: (§1) Specifically, in order to establish a co-culture system in which cancer organoids, cytotoxic T cells (hereinafter referred to as ‘CD8+ T cells’) and dendritic cells (hereinafter referred to as ‘DC’) coexist, the inventors set a mixing ratio satisfying co-culture conditions under which (1) cancer organoids grow properly and (2) drug efficacy is well observed. […] Herein, the number of organoids or cells was set to 1 for 5.0×10^3.
# (§2) Cancer organoids were prepared to have a 3D structure by isolating colorectal cancer or lung cancer tissues obtained from patients into single cells and culturing them together with ECM (extracellular matrix). The formed cancer organoids were confirmed to be tumors through pathological analysis, and used after being isolated into single cells using Tryp-LE.
# (§3) CD8+ T cells isolated from PBMCs were used. PBMCs were isolated from blood obtained from donors by using Ficoll, and CD8+ T cells were isolated through MACS after a T cell activation process.
# (§4) DCs differentiated from iPSCs were used, and DCs were differentiated from the H9 cell line using a general method known in the art.
# (§5) Specifically, for the co-cultures of cancer organoids, CD8+ T cells and DCs according to the mixing ratio in Table 7 above, those not treated with the drug were set as the control group (hereinafter referred to as ‘drug-untreated group’), and those treated with an atezolizumab targeting CD8+ T cells as an exemplary drug were set as the experimental group (hereinafter referred to as ‘drug-treated group’). Drugs were treated immediately after the start of co-culture, and the growth rate of cancer organoids was measured immediately after the start of the co-culture (0 h), after 24 hours (24 h), after 48 hours (48 h) and after 72 hours (72 h), respectively. The death rate was analyzed by the following method through the measured growth rate.
# lung cancer organoids [2] = experiment: Growth and death rate of lung cancer organoids co-cultured with TILs
# Protocol: (§6) Specifically, the inventors set a mixing ratio satisfying co-culture conditions under which (1) cancer organoids grow properly and (2) drug efficacy is well observed. Cancer organoids were prepared using cancer cells isolated from tumor tissues of lung cancer or colorectal cancer patients, and TILs obtained by co-culture with cancer organoids for 14 days according to Example 1.1 were used.
# (§7) Herein, the number of organoids or TILs was set to 1 for 5.0×10^3.
# (§8) In addition, for the co-cultures of cancer organoids and TILs according to the ratio above, those not treated with the drug were set as the control group (hereinafter referred to as ‘drug-untreated group’), and those treated with atezolizumab, which is currently marketed and used for a cancer treatment, as an exemplary drug were set as the experimental group (hereinafter referred to as ‘drug-treated group’). After co-culturing for 72 hours, the growth rate was measured immediately after the start of the co-culture (0 h), after 24 hours (24 h), after 48 hours (48 h) and after 72 hours (72 h), respectively, and the death rate was analyzed by the following method through the measured growth rate: Cancer organoid death rate (%)=[1−(growth rate of cancer organoids in the drug-treated group*)/(growth rate of cancer organoids in the drug-untreated group**)]×100
# [3] = tested on: colorectal cancer organoids; experiment: Growth and death rate of colorectal cancer organoids co-cultured with TILs
# Protocol: as §6, §7, §8
# [4] = tested on: colorectal cancer organoids; experiment: Death rate of colorectal cancer organoids co-cultured with CD8+ T cells and Tregs; details: 72 h
# Protocol: (§9) Herein, the number of organoids or cells was set to 1 for 5.0×10^3.
# (§10) Cancer organoids were prepared using stem cells isolated from tumor tissue of colorectal cancer or lung cancer patients. The isolated stem cells were mixed with ECM (extracellular matrix) to grow into a 3D structure to make a dome, and then organoids were formed and used through culture. CD8+ T cells and Tregs were obtained from blood obtained from colorectal cancer or lung cancer patients. Immune cells present in the blood were differentiated, and CD8+ and Treg cells were isolated from the differentiated immune cells using a MACS (magnetic activated cell sorting) method.
# (§11) Specifically, for the co-cultures of cancer organoids, CD8+ T cells and Tregs according to the mixing ratio in Table 6 above, those not treated with the drug were set as the control group (hereinafter referred to as ‘drug-untreated group’), and those treated with an atezolizumab targeting CD8+ T cells or an anti-TIGIT antibody targeting CD8+ T cells or Tregs as an exemplary drug were set as the experimental group (hereinafter referred to as ‘drug-treated group’). After co-culturing them for 72 hours, the growth rate was measured after 72 hours of drug treatment (72 h), and the death rate was analyzed by the following method through the measured growth rate.
# [5] = tested on: colorectal cancer organoids; experiment: Growth and death rate of colorectal cancer organoids co-cultured with CD8+ T cells and DCs
# Protocol: as §1, §2, §3, §4, §5
# [6] = tested on: cancer organoids derived from colorectal cancer patients; experiment: Overall efficacy (organoid area change, HCS) in co-culture of cancer organoids, CD8+ T cells and M1; details: Groups 1, 3, 6 and 8: cancer organoids:M1 fixed 1:1, CD8+ T cell ratio changes; 10 nM; 72 hours
# Source text: In order to confirm whether the screening system composed of cancer organoids, CD8+ T cells and M1 as confirmed in Example 1.1 can be used to evaluate the efficacy of a drug, the death rate of cancer organoids by phagocytosis was observed after treating the system with an anti-PD-L1 antibody atezolizumab previously used as an immuno-anticancer drug, anti-CD47 antibody and a combination thereof.
# Atezolizumab activates CD8+ T cells by binding to PD-L1 on cancer cells and blocking the PD-1/PD-L1 mechanism, and anti-CD47 antibody activates macrophages by binding to […] and blocking the SIRP-a/CD47 mechanism. […]
# Then, they were co-cultured, and treated with 10 nM of Atezolizumab (Selleck, #A2004) which is anti-PD-L1 antibody and/or 10 nM of anti-CD47 antibody. After that, the death rate of cancer organoids or M1 was analyzed at each ratio. Herein, the ratio of the CD8+ T cells and M1 was tested in a narrower range than the ratio applied in Example 1.1, and the changes in organoid area for 72 hours after drug treatment was analyzed by HCS (High-Content Screening). After 72 hours from drug treatment, the overall efficacy was evaluated by calculating the change in the organoid area of the drug-treated group compared to the organoid area of the non-treated group.
# lung cancer organoids [7] = experiment: Death rate of lung cancer organoids co-cultured with CD8+ T cells and Tregs; details: 72 h
# Protocol: as §9, §10, §11
# [8] = lung cancer organoids:TILs 1:0.5
# [9] = lung cancer organoids:TILs 1:1.5
# [10] = colorectal cancer organoids:TILs 1:0.5
# [11] = colorectal cancer organoids:TILs 1:1.5
substance,measurement,setting,value
atezolizumab,"death rate of cancer organoids, maximum level","lung cancer organoids [1]; lung cancer organoids:CD8+ T cells 1:0.5, DC 0.5 to 5, 72 h",about 5%
same,maximum death rate of cancer organoids,"lung cancer organoids [1]; lung cancer organoids:CD8+ T cells 1:1, DC 0.5 to 5, 72 h",about 10%
same,growth of cancer organoids,lung cancer organoids [1]; lung cancer organoids:CD8+ T cells:DCs 1:0.5:0.5 to 5 or 1:1:0.5 to 1,did not significantly inhibit the growth
same,growth of cancer organoids,lung cancer organoids [1]; lung cancer organoids:CD8+ T cells:DCs 1:1:5 or 1:3:0.5 to 5,inhibited the growth
same,death rate of lung cancer organoids,lung cancer organoids [2]; [8],about 5%
same,response of lung cancer organoids (growth rate and death rate vs control group),lung cancer organoids [2]; [8],did not respond to the drug
same,"anticancer effects on lung cancer organoids (growth, death)",lung cancer organoids [2]; [9],inhibiting the growth and increasing death
same,death rate of lung cancer organoids,lung cancer organoids [2]; [9],about 20%
same,death rate of lung cancer organoids,lung cancer organoids [2]; lung cancer organoids:TILs 1:3,about 5%
same,death rate of colorectal cancer organoids,[3]; [10],about 5%
same,response of colorectal cancer organoids (growth rate and death rate vs control group),[3]; [10],did not respond to the drug
same,"anticancer effects on colorectal cancer organoids (growth, death)",[3]; [11],inhibiting the growth and increasing death
same,death rate of colorectal cancer organoids,[3]; [11],about 10%
same,death rate of colorectal cancer organoids,[3]; colorectal cancer organoids:TILs 1:3,about 5%
same,"death rate of cancer organoids, maximum level","[4]; colorectal cancer organoids:CD8+ T cells 1:1, Treg 0.5 to 3",about 10%
same,death rate of cancer organoids,"[4]; colorectal cancer organoids:CD8+ T cells 1:3, with Tregs",about 25%
same,death rate of cancer organoids,"[4]; colorectal cancer organoids:CD8+ T cells 1:3, without Tregs",about 26%
same,death rate of cancer organoids,"[4]; colorectal cancer organoids:Tregs 1:3, without CD8+ T cells",about 2%
same,"death rate of cancer organoids, maximum level","[5]; colorectal cancer organoids:CD8+ T cells 1:0.5, DC 0.5 to 5, 72 h",about 5%
same,maximum death rate of cancer organoids,"[5]; colorectal cancer organoids:CD8+ T cells 1:1, DC 0.5 to 5, 72 h",about 10%
same,growth of cancer organoids,[5]; colorectal cancer organoids:CD8+ T cells:DCs 1:0.5:0.5 to 5,did not significantly inhibit the growth
same,growth of cancer organoids,[5]; colorectal cancer organoids:CD8+ T cells:DCs 1:1 to 3:0.5 to 5,inhibited the growth
same,growth inhibition and death of cancer organoids (overall efficacy),[6],high
same,"death rate of cancer organoids, maximum level","lung cancer organoids [7]; lung cancer organoids:CD8+ T cells 1:1, Treg 0.5 to 3",about 10%
same,death rate of cancer organoids,"lung cancer organoids [7]; lung cancer organoids:CD8+ T cells 1:3, with Tregs",about 25%
same,death rate of cancer organoids,"lung cancer organoids [7]; lung cancer organoids:CD8+ T cells 1:3, without Tregs",about 27%
same,death rate of cancer organoids,"lung cancer organoids [7]; lung cancer organoids:Tregs 1:3, without CD8+ T cells",about 1%
